Earlier results in US11147926B2, “Intrathecal baclofen pharmaceutical dosage forms and related delivery system” (PIRAMAL CRITICAL CARE, INC., priority 2008, dated 2021).

Legend:
[1] = injected into the intrathecal space of a patient, at effective CSF concentrations, versus oral

**Q.** Which “plasma concentrations, times less than with oral administration” value [1] does the source give for `NCC(CC(=O)O)c1ccc(Cl)cc1` (stereo not shown) [Baclofen, 4-amino-3-(p-chlorophenyl)butyric acid] here?
**A.** 100 times

**Q.** What about the solubility in chloroform (chloroform) of the same molecule?
**A.** insoluble

**Q.** And the solubility in methanol (methanol)?
**A.** very slightly soluble

**Q.** And the solubility in water (water)?
**A.** slightly soluble
